According to article PMC3704662, “Synthesis, docking and acetylcholinesterase inhibitory assessment of 2-(2-(4-Benzylpiperazin-1-yl)ethyl)isoindoline-1,3-dione derivatives with potential anti-Alzheimer effects” (DARU Journal of Pharmaceutical Sciences, 2013):

Molecular target: T1, acetylcholinesterase from electric eel (AChE, E.C. 3.1.1.7, Type V-S) (Electrophorus electricus, UniProt O42275)
T1 construct: purchased Sigma-Aldrich (Steinheim, Germany) Type V-S (catalogue number not given)
Test: biochemical
Conditions: Ellman test; IC50 ± SEM; 15 min preincubation at 25°C; pH 8.0; acetylthiocholine iodide substrate; triplicate; read-out: IC50 of in vitro acetylcholinesterase assay
Procedure: Lyophilized powder of acetylcholinesterase from electric eel source (AChE, E.C. 3.1.1.7, Type V-S, 1000 unit) was purchased from Sigma-Aldrich (Steinheim, Germany). 5,5’-Dithiobis-(2-nitrobenzoic acid), potassium dihydrogen phosphate, dipotassium hydrogen phosphate, potassium hydroxide, sodium hydrogen carbonate, and acetylthiocholine iodide were purchased from Fluka (Buchs, Switzerland). […] The Ellman test was carried out for assessment of the anticholinesterase activity of intended compounds in vitro. Prior to use, all solutions were adjusted to 25°C. […] The assay solution consisted of a 0.1 M potassium phosphate buffer pH 8.0, with the addition of 0.01 M 5,50-dithio-bis(2-nitrobenzoic acid), 2.5 unit/mL of enzyme solution (AChE, E.C. 3.1.1.7, Type V-S, lyophilized powder, from electric eel) (Sigma Chemical). […] After rapid and immediate mixing the change of absorption was measured at 412 nm. In order to justify non enzymatic reaction assays were carried out with a blank containing all components except AChE.
The blank reading contained 3 ml buffer, 200 μl water, 100 μl DTNB and 20 μl substrate. The reaction rates were calculated, and the percent inhibition of test compounds was determined. Each concentration was analyzed in triplicate, and IC50 values were determined graphically from inhibition curves (log inhibitor concentration vs percent of inhibition).

T1 sequence (O42275 24-633): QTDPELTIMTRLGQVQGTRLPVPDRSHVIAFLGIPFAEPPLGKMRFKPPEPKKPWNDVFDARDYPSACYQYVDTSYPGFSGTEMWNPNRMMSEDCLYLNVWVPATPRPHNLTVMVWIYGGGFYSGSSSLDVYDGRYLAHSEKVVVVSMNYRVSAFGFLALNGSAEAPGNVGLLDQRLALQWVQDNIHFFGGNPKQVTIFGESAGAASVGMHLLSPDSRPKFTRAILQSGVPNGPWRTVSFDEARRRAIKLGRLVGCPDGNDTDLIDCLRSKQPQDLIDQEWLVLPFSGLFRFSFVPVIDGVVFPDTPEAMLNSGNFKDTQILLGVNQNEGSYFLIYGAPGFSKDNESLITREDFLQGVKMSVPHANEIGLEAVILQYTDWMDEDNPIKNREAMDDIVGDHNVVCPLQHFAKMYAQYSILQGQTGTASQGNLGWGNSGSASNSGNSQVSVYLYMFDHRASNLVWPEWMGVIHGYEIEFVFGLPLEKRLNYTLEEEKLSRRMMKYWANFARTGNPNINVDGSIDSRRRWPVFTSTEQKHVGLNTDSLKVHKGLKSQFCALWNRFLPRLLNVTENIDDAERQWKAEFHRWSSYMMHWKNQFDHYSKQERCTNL

Structure (SMILES) | IC50
COc1ccc(CN2CCN(CCN3C(=O)c4ccccc4C3=O)CC2)cc1 [Compound 4h, 2-(2-(4-(4-Methoxybenzyl)piperazin-1-yl)ethyl)isoindoline-1,3-dione] | 72 ± 9 µM
O=C1c2ccccc2C(=O)N1CCN1CCN(Cc2cccc(F)c2)CC1 [Compound 4e, 2-(2-(4-(3-Fluorobenzyl)piperazin-1-yl)ethyl)isoindoline-1,3-dione] | 74 ± 11 µM
O=C1c2ccccc2C(=O)N1CCN1CCN(Cc2ccc(Cl)cc2)CC1 [Compound 4c, 2-(2-(4-(4-Chlorobenzyl)piperazin-1-yl)ethyl)isoindoline-1,3-dione] | 26 ± 5 µM
O=C1c2ccccc2C(=O)N1CCN1CCN(Cc2ccc([N+](=O)[O-])cc2)CC1 [Compound 4k, 2-(2-(4-(4-Nitrobenzyl)piperazin-1-yl)ethyl)isoindoline-1,3-dione] | 40 ± 4 µM
O=C1c2ccccc2C(=O)N1CCN1CCN(Cc2cccc(Cl)c2)CC1 [Compound 4b, 2-(2-(4-(3-Chlorobenzyl)piperazin-1-yl)ethyl)isoindoline-1,3-dione] | 85 ± 12 µM
O=C1c2ccccc2C(=O)N1CCN1CCN(Cc2ccccc2Cl)CC1 [Compound 4a, 2-(2-(4-(2-Chlorobenzyl)piperazin-1-yl)ethyl)isoindoline-1,3-dione] | 0.91 ± 0.045 µM
O=C1c2ccccc2C(=O)N1CCN1CCN(Cc2cccc([N+](=O)[O-])c2)CC1 [Compound 4j, 2-(2-(4-(3-Nitrobenzyl)piperazin-1-yl)ethyl)isoindoline-1,3-dione] | 59 ± 6 µM
COc1cccc(CN2CCN(CCN3C(=O)c4ccccc4C3=O)CC2)c1 [Compound 4g, 2-(2-(4-(3-Methoxybenzyl)piperazin-1-yl)ethyl)isoindoline-1,3-dione] | 5.5 ± 0.7 µM
O=C1c2ccccc2C(=O)N1CCN1CCN(Cc2ccccc2)CC1 [Compound 4l, 2-(2-(4-Benzylpiperazin-1-yl)ethyl)isoindoline-1,3-dione] | 9 ± 2 µM
O=C1c2ccccc2C(=O)N1CCN1CCN(Cc2ccc(F)cc2)CC1 [Compound 4f, 2-(2-(4-(4-Fluorobenzyl)piperazin-1-yl)ethyl)isoindoline-1,3-dione] | 42 ± 8 µM
O=C1c2ccccc2C(=O)N1CCN1CCN(Cc2ccccc2F)CC1 [Compound 4d, 2-(2-(4-(2-Fluorobenzyl)piperazin-1-yl)ethyl)isoindoline-1,3-dione] | 23 ± 7 µM
O=C1c2ccccc2C(=O)N1CCN1CCN(Cc2ccccc2[N+](=O)[O-])CC1 [Compound 4i, 2-(2-(4-(2-Nitrobenzyl)piperazin-1-yl)ethyl)isoindoline-1,3-dione] | 36 ± 5 µM
